Experimental data from ChEMBL document CHEMBL1157539, “Thousands of chemical starting points for antimalarial lead identification” (Nature, 2010).

Each compound was assayed on Plasmodium falciparum (assay: GSK_TCMDC: Inhibition of Plasmodium falciparum 3D7 in whole erythrocytes, using parasite LDH activity as an index of growth.). Conditions: Plasmodium falciparum, 3D7.
Assay type: functional, organism-based

| Structure (SMILES) | XC50 [nM] |
| --- | --- |
| Cc1ccc2nc(C)cc(N/N=C/c3cccc([N+](=O)[O-])c3)c2c1 | 876 |
| CN(C)C(C)(C)CN(Cc1ccc(-c2ccc(C(F)(F)F)cc2)cc1)C(=O)Cn1c(CCc2cccc(F)c2F)nc(=O)c2ccccc21 | 827 |
| COc1ccc(-c2nc3c(NCc4ccccc4)nccc3[nH]2)c(OC)c1 | 778 |
| COc1cccc(NC(=O)COc2ccc(C(=O)Nc3nc4ccccc4[nH]3)cc2)c1 | 970 |
| CC(=O)c1c[nH]c(C(=O)Nc2ccc(-c3cn4ccccc4n3)cc2)c1 | 890 |
| O=C(NCc1cccc2ccccc12)c1ccc(CNC2CCN(Cc3ccccc3)CC2)cc1 | 838 |
| Cc1ccccc1/N=C1\NC(=S)N(c2cccc(C(F)(F)F)c2)C12CCC(C(C)(C)C)CC2 (stereo not given) | 973 |
| O=S(=O)(Nc1cccc(CCN2CCCCC2CCN2CCCC2)c1)c1ccc(Oc2ccccc2)cc1 (stereo not given) | 1050 |
| c1ccc(-n2ncc(CNCc3ccc(-c4ccc(-c5nc6ccccc6[nH]5)s4)cc3)n2)cc1 | 1400 |
| CCn1c(Cc2ccccc2)nnc1Sc1ccc([N+](=O)[O-])c(C#N)c1 | 1010 |
| COc1ccc(CCN(C)CCOc2ccc(NC(=O)COc3ccc4sc5ccccc5c(=O)c4c3)cc2)cc1OC | 1100 |
| c1ccc(CN2CCN(c3cc(-c4cncc(-c5ccccc5)c4)nc(-c4ccccc4)n3)CC2)cc1 | 1040 |
| Cc1[nH]c(C)c(-c2ccc(OCc3cc(F)cc(F)c3)nc2)c(=O)c1Cl | 86.8 |
| CSc1ccc2ccccc2c1CCNCCCCNCCc1c(SC)ccc2ccccc12 | 408 |
| CCOC(=O)c1ccc(COc2ccc(C)nc2)cc1 | 542 |
| CC[C@H]1CN(Cc2cccc(O)c2)CC[C@H]1CCCc1ccnc2ccc(O)cc12 | 534 |
| COc1ccc(-c2cccc(NC(=O)c3ccc(C#N)cc3)c2)cc1CN1CCCN(C)CC1 | 756 |
| Cc1cc(=NN=Cc2ccc(Cl)cc2)c2cc(C(F)(F)F)ccc2[nH]1 | 920 |
| Cc1onc(-c2ccccc2)c1-c1nc(NCc2ccccc2Cl)no1 | 699 |
| COc1ccc(NC(=O)NC2CCN(c3ccnc4ccccc34)C2)cc1 (stereo not given) | 875 |
| COc1ccc(CNc2cc(C)nc3sc4c(c23)CCC2(C4)OCCO2)cc1 | 953 |
| CCCC(C)Nc1nc(C)cc(N[C@@H](Cc2ccccc2)C(=O)Nc2ccccc2)n1 (stereo not given in full) | 863 |
| CCc1cc(Br)c2c(c1)C(NCCCNc1cc(=O)c3ccccc3[nH]1)CCN2 (stereo not given) | 852 |
| Cc1c(N)ccc2[nH]c(-c3ccc(N)cc3)nc12 | 1210 |
| FC(F)(F)c1cccnc1N1CCC(Nc2nc3cc(Cl)ccc3[nH]2)CC1 | 646 |

| Structure (SMILES) | XC50 [nM] |
| --- | --- |
| CN1CCN(CCCN(Cc2cccc(-c3ccc(CNC4CCCC4)cc3)c2)C(=O)/C=C/c2ccccc2)CC1 | 746 |
| Nc1nc(N)c2c(ccc3nn(Cc4ccccc4)cc32)n1 | 215 |
| COc1ccc2nccc([C@@H](O)CN3CCC(NCc4cc5ccccc5o4)CC3)c2c1 | 658 |
| Cc1cn(CC(=O)Nc2cccc(-c3cccc(-c4nc5cccc(C)c5[nH]4)c3)c2)c(=O)[nH]c1=O | 581 |
| O=C(N[C@H]1CCN(Cc2ccc(OCCN3CCCC3)c(Cl)c2)C1)c1ccc(Cl)c(Cl)c1 | 921 |
| CCNc1cc(C(=O)N[C@@H](Cc2ccoc2)[C@H](O)CNC(C)CCCC(C)C)cc(N2CCCCS2(=O)=O)c1 (stereo not given in full) | 619 |
| COc1ccc(S(=O)(=O)N2CCCc3ccc(Br)cc32)cc1N1CCN(C(=O)C(Cl)(Cl)Cl)CC1 | 809 |
| CC[C@H](C)CNC(=O)c1cncc(-c2ccc(CNCCOc3ccccc3)cc2)c1 | 1110 |
| OCCc1ccc(Nc2nccc(-c3nnc4ccccn34)n2)cc1 | 901 |
| C=CC[C@H](C[C@H](O)[C@H](Cc1ccccc1)NC(=O)c1ccc(-n2cccn2)cc1)C(=O)NC1CCCCC1 | 810 |
| Cc1cc2c(cc1C(F)(F)F)N(C(=O)Nc1cccc(C(=O)NC3CCN(Cc4ccccc4)CC3)c1)CC2 | 912 |
| NC1=NC2(CCCCC2)N(OCCCCCCC2CCCCC2)C(N)=N1 | 356 |
| CC1(C)N=C(N)N=C(N)N1c1ccccc1 | 327 |
| Cc1cccc2nc(-c3cccc(-c4cccc(NC(=O)Cc5ccc[n+]([O-])c5)c4)c3)[nH]c12 | 635 |
| COc1ccc2nccc(NCC3(O)CCC(NCc4cc5c(cn4)OCCO5)CC3)c2n1 (stereo not given) | 664 |
| CCCCCCNC(=O)C1Cc2c([nH]c3ccc(Br)cc23)C2(CCN(CCc3ccccc3)CC2)N1 (stereo not given) | 788 |
| COc1cccc(CNC(=O)NC2CCN(c3ccnc(Nc4cc(OC)c(OC)c(OC)c4)n3)C2)c1 (stereo not given) | 713 |
| COc1ccc(-c2cc(C(F)(F)F)n3ncc(C(=O)Nc4cc(C)ccc4O)c3n2)cc1OC | 133 |
| CN(C)CCCN1CCN(C(=O)c2cccc(-c3noc(C(F)(F)F)n3)c2)CC1 | 353 |
| CCN(CC)c1nc(N)c2c(N)nc3c(c2c1C#N)C(=O)CN3Cc1ccccc1 | 70.8 |
| Cc1ccccc1C1CCN(C2CCC(NC(=O)/C=C/c3ccc(C(F)(F)F)cc3F)CC2)CC1 (stereo not given) | 902 |
| Oc1ccc2[nH]c(-c3cccc(F)c3)nc2c1CN1CCC(N2CCCC2)CC1 | 184 |
| CC(C)c1cc(C(=O)N[C@@H](Cc2ccccc2)[C@H](O)CNC2CCCCC2)cc(N2CCCC2=O)c1 | 121 |
| Cc1cccc(-n2c(=O)c3c4c(sc3n3c(SCCC(C)C)nnc23)CCCC4)c1 | 763 |
| CCCCCCC(C)c1cc(O)c2c(c1)OC(=O)CC2(CC)c1ccccn1 (stereo not given) | 335 |

| Structure (SMILES) | XC50 [nM] |
| --- | --- |
| Clc1ccccc1/C=C/c1cncnc1Nc1ccc2[nH]c(Cc3ccccc3)nc2c1 | 915 |
| O=C(Nc1ccc(Cl)cn1)c1sc2ccccc2c1O | 1040 |
| Cc1cc(C(F)(F)F)n2nc(C(=O)N(C)Cc3cncn3Cc3ccc(F)cc3)cc2n1 | 832 |
| O=C(Nc1cccc(CN2CCCN(CCc3ccccc3)CC2)c1)c1ccc(Cl)c(Cl)c1 | 952 |
| FC(F)(F)c1ccc(/C=C/c2cncnc2Nc2ccc3[nH]c(Cc4ccccc4)nc3c2)cc1 | 608 |
| CC(C)CCN1CCC(Oc2ccc(NC(=O)c3ccsc3)cc2Cl)CC1 | 1040 |
| O=C(CCc1c[nH]cn1)Nc1cccc(-c2ccc(-c3nc4ccccc4[nH]3)s2)c1 | 759 |
| Cc1cc(=NN=CC=Cc2ccccc2)c2cc(F)ccc2[nH]1 | 734 |
| Cc1ccc(O)c(CN2CCCC(COC(c3ccc(F)cc3)c3ccc(F)cc3)C2)c1 (stereo not given) | 715 |
| O=C(Nc1cccc(-c2csc(NC(=O)c3ccc4ccccc4c3)n2)c1)c1ccc2ccccc2c1 | 711 |
| Cc1nc2nc(N)nc(N)c2c(C)c1Cc1cccc(C#N)c1 | 924 |
| CCCNC(=O)C1Cc2cc(OC)c(OC)cc2C2(N1)C(=O)N(Cc1cccc(OC)c1)c1ccccc12 (stereo not given) | 863 |
| CC(=O)Nc1nnc(SCc2c(C)cc(C(C)(C)C)cc2C)s1 | 704 |
| O=[N+]([O-])c1cccc(C=NNc2nc(=Nc3ccccc3)[nH]c(=Nc3ccccc3)[nH]2)c1 | 968 |
| CCN(CC)CCCN(C(=O)Nc1ccc(C#N)cc1)c1nc(-c2ccc(F)cc2)cs1 | 650 |
| CC(=O)Nc1cccc(/C=C/C(=O)N2CCC(N3CCCCC3)CC2)c1 | 1050 |
| COC(=O)c1ccc(CC(C)NCC(O)c2cccc(OCc3ccccc3)c2)cc1 (stereo not given) | 1160 |
| CCCN(CCC)S(=O)(=O)c1ccc(C(=O)Nc2nc3ccc(-c4cc(=O)[nH]c(Nc5ccccc5Cl)n4)cc3[nH]2)cc1 | 594 |
| Oc1ccccc1CCNC1CCc2ccccc2C1 (stereo not given) | 928 |
| O=S(=O)(Nc1ccc2nccc(N3CCNCC3)c2c1)c1ccc(-c2ccccc2)cc1 | 977 |
| CCOc1ccc(C2CCN(CCCCNC(=O)c3ccc(NC(=O)c4ccc(Cl)cc4)cc3)CC2)c(CC)c1 | 786 |
| Nc1ncc(-c2ccsc2)c2ccc(-c3ccc4cn[nH]c4c3)cc12 | 814 |
| Fc1ccc2[nH]c(-c3cccc(-c4ccc(CNCC5CCCO5)cc4)c3)nc2c1 (stereo not given) | 541 |
| CN(C)c1ccc(-c2csc(C(=O)NC3CCN(Cc4ccc(C(C)(C)C)cc4)C3)c2)cc1 (stereo not given) | 947 |
| CCOC(=O)C1CCN(CCCNC(=O)/C(=C/C=C/c2cc3cc(Cl)c(Cl)cc3[nH]2)OC)CC1 | 1040 |

| Structure (SMILES) | XC50 [nM] |
| --- | --- |
| COc1ccc(-c2ccc(NC(=O)c3ccc(Cl)cc3)cc2)cc1CN(C)CCO | 813 |
| O=c1ccc(CNc2nc(NCCc3ccccc3)nc3cc(Cl)ccc23)c[nH]1 | 298 |
| CC(C)(C)c1ccc(Cc2cccc3nc(N)nc(N)c23)cc1 | 834 |
| Cc1cc(N2CCCC2)nc(Nc2ccc(NC(=O)c3ccccc3)cc2)n1 | 977 |
| O=C(CCCCCNC(=O)c1ccc(O)c(-c2ccc(Cl)c(Cl)c2)c1)NCCc1ccc(Cl)c(Cl)c1 | 756 |
| CO/C(=C\C=C\c1cc2cc(Cl)c(Cl)cc2[nH]1)C(=O)NC1CC2CCCC(C1)N2C (stereo not given) | 1000 |
| COCCOCCOCCn1ccc2c3c(N)nc(N)nc3ccc21 | 263 |
| CC(C)(C)c1ccc(CNCCOc2ccc(Nc3nnc(-c4ccc(-c5ncc[nH]5)cc4)o3)c3ccccc23)cc1 | 135 |
| Nc1nc(N)c2c(ccc3nn(C4CCCC4)cc32)n1 | 286 |
| CCC1(CC)C(=O)N=C(N2CCCCC2)N(C)C1=O | 303 |
| Cc1noc(C)c1-c1ccc2c(Nc3ccc(C#N)cc3)c(C(N)=O)cnc2c1 | 755 |
| O=C(Nc1ccc([N+](=O)[O-])cc1Br)c1cc2ccccc2nc1Cl | 185 |
| COc1ccc(CNC(=O)c2cnc3c(O)cccc3c2Nc2cccc(NC(=O)c3ccc(Cl)c(Cl)c3)c2)cc1 | 604 |
| O=[N+]([O-])c1cccc(CNC2CCN(Cc3ccc(C(F)(F)F)cc3)CC2)c1 | 736 |
| COc1ccccc1N1CCN(c2cccc(F)c2C#N)CC1 | 965 |
| N=c1[nH]c2cccc3ccc4cccc1c4c32 | 918 |
| CCn1cc(CN2CCCC(C(=O)Nc3ccc(-c4nc5ccccc5[nH]4)cc3)C2)c(C)n1 (stereo not given) | 802 |
| CN1CCCN(Cc2ccc(-c3cccc(NC(=O)c4ccc(F)cc4)c3)cc2)CC1 | 1090 |
| O=C(CCCCCNC(=O)c1ccc(O)c(-c2ccc(Cl)c(Cl)c2)c1)NCCN1CCCCC1 | 886 |
| Cc1nc2c(=O)sc3ccccc3c2n1Cc1ccccc1 | 881 |
| CCN(CC)CCn1c(=N)n(CC(=O)c2ccc(-c3ccccc3)cc2)c2ccccc21 | 1140 |
| O=C(NCCc1ccc(Cl)c(Cl)c1)[C@@H]1CCCN1C(=O)c1ccc(O)c(-c2ccc(Cl)c(Cl)c2)c1 | 550 |
| CCCOc1ccc(NC(=O)c2cccs2)cc1Cl | 859 |
| CC(C)(CNCc1ccc(OC(F)(F)F)cc1)c1nc(-c2ccc(Cl)c(O)c2)c(-c2ccncc2)[nH]1 | 545 |
| c1ccc(-c2nc(Nc3ccncc3)sc2-c2ccccc2)cc1 | 812 |
